The subject of assay [1] is lice hatching proteases in the egg shell washings (ESW). Kind of assay: Gelatine substrate SDS-PAGE of egg shell washings treated with protease inhibitors. It counts as biochemical, Pediculus humanus humanus. Conditions: 10 mM inhibitor; 3 hrs at 37° C. As to the method:
Within 12 hours of hatching 50 body lice eggs (Pediculus humanus humanus) were removed from the hair and placed in a 1 ml eppendorf tube. 20 μL of distilled water was added to the unhatched eggs and the preparation incubated for 30 minutes at 32° C. The 20 μL was recovered, freeze dried and stored at −70° C. A number of other samples were also collected as described. Hair samples from which unhatched lice eggs had been removed were also collected and incubated as described above. In addition, a sample of unhatched eggs and a sample of hair from which lice eggs had been removed were collected 7 days post laying (within 24 hrs of egg hatching). Both samples were washed in 10 mls of a 1% solution of sodium hypochlorite for 1 minute followed by a 5×1 minute washes in 25 mls in distilled water to remove the hypochlorite. These samples were then incubated in 20 μL of distilled water as described above. In addition, a group of 25 lice eggs that were within 24 hours of hatching, were pretreated with 1% sodium hypochlorite, washed as described above and left to hatch. Within 1-2 hours after hatching the empty egg shells were incubated in 20 μL of distilled water as described above, the washings collected from the hatched egg shells and stored at −70° C. All of the extract samples were then freeze-dried overnight. The freeze-dried samples were then resuspended in 15 μL of non-reducing SDS sample buffer, centrifuged at 10,000 g for 2 minutes and the entire 15 μL loaded on to 10% gelatine substrate SD S-PAGE gels. Gels were run at 4° C. for 10 minutes at 10 mA followed by a further 25 minutes at 15 mA per gel. They were then incubated for 2×20 minutes in a 2.5% Triton-X 100 solution followed by a three hour incubation in 0.1M Tris/HCl containing 1 mM CaCl2 pH 8.0. Activity was detected as clear areas on the gel the result of protease activity degrading the gelatine within the gel.
10% SDS-PAGE gelatine substrate gels were loaded with freeze dried egg shell washings from 100 lice eggs that had been resuspended in 50 μl of non-reducing sample buffer with samples run at 10 μl per lane. Gels were run at 4° C. for 10 minutes at 10 mA per gel followed by a further 25 minutes at 15 mA per gel. Gels were then cut into strips and each strip incubated for 2×20 minutes in a 2.5% Triton-X 100 solution containing a specific inhibitor. The inhibitors used were the serine protease inhibitor PMSF (5 mM), the metalloprotease inhibitor 1,10-phenanthroline (10 mM), the aspartic protease Pepstatin (5 μM) and the cysteine inhibitor E-64 (10 μM). The gel strips were then incubated in 0.1M Tris/HCl containing 1 mM CaCl2 pH 8 containing the different protease inhibitors for 3 hrs at 37° C., before being stained in Coomassie blue and destained as previously described.

In assay [2] the test system is Helicoverpa armigera eggs (Tatura×Toowoomba strains). Kind of assay: Egg hatching of Helicoverpa armigera. Conditions: Table 14; 10 mM; relative to control.
Description: Several hundred Helicoverpa armigera eggs (Tatura×Toowoomba strains) were collected, that had been laid on fine mesh cloth over a 24 hour period.
Batches of Helicoverpa eggs were exposed to a specific inhibitor solution for between 2-10 seconds the excess solution drained by blotting with dry tissue paper. The egg masses were then placed in a humid box at 25 degrees until egg hatch. Control eggs were exposed to absolute methanol as described above.
Another assay concerns lice eggs. Nature of the assay: Lice egg-hatch bioassay, eggs treated five days post laying. It counts as in vivo, clothing lice (Pediculus humanus humanus). As to the method:
To evaluate the potential effects of protease inhibitors on lice egg hatching it was necessary to develop a reliable in vitro bioassay. Male and female clothing lice were fed on a rabbit as previously described. […] During this period the female lice laid their eggs and attached them to the woven cloth. All lice would then be removed and the eggs permitted to incubate for the following 5 days. […] The eggs would then progress through to their final stages of development and hatch. In untreated control eggs a reliable average percentage hatch of between 85-95 percent was obtained using the in vitro egg hatch assay. […] Lice eggs were laid onto cloth as described above. […] Protease inhibitor solutions were typically prepared as stock solutions and added fresh at the appropriate concentration. Specifically stock solutions were prepared as follows: 1,10-phenanthroline (200 mM in methanol) and bestatin (5 mg/ml in methanol). In addition, the equivalent levels of the solvent were added to the non-inhibitor containing controls eggs to test for any buffer alone effects. Percentage hatch inhibition was calculated as the percentage reduction in egg hatch compared to the untreated control.

The test system of assay [3] is Plutella xylostella eggs (Waite strain). Kind of assay: Egg hatching of Plutella xylostella. Particulars: Table 9; 10 mM; relative to control (100% MeOH).
Description: The egg masses were then placed in a humid box at 25 degrees until egg hatch. Control eggs were exposed to absolute methanol as described above. At day 6 post laying the eggs were assessed from the different treatments and the percentage of egg hatch determined relative to the control as shown in Table 9.
Batches of Plutella eggs that were laid on either fine cloth or parafilm were dipped in a specific inhibitor solution for between 2-10 seconds, the excess solution was drained by blotting with dry tissue paper. The egg masses were then placed in a humid box at 25 degrees until egg hatch. Control eggs were exposed to absolute methanol as described above or not treated. At day 6 post laying the eggs were assessed from the different treatments and the percentage of egg hatch determined relative to the controls as shown in Tables 10 and 11.
Batches of Plutella eggs that were laid on fine cloth were dipped in a specific inhibitor solution for approximately 2 seconds, the excess solution was drained by blotting with dry tissue paper. The egg masses were then placed in a humid box at 25 degrees until egg hatch. Control eggs were exposed to absolute methanol as described above or not treated. At day 6 post laying the eggs were assessed from the different treatments and the percentage of egg hatch determined relative to the control as shown in Table 12.
The egg masses were then placed in a humid box at 25 degrees until egg hatch. Control eggs were exposed to absolute ethanol as described above. On day 6 post laying the eggs were assessed from the different treatments and the percentage of egg hatch determined relative to the control.
The next assay concerns head lice eggs. Kind of assay: Assessment of commercial lice products in the standard lice egg-hatching assay. The assay is classed as in vivo. Particulars: summary in words. As to the method: These three products were tested according to manufacturer's recommendations. Groups of eggs (24 hr old) were treated with the different products according to manufacturer's recommendations for the appropriate period of time (5-10 minutes) followed by a rinse for 1-2 minutes in 32° C. water. A positive controls (10 mM 1,10-phenanthroline) and two negative controls (no treatment and 20% Methanol) were also incorporated. Post exposure to the different products, the eggs were rinsed with warm water at 32° C. before being blotted dry on tissue paper and placed at 32° C., 70% RH and left to hatch. A second group of eggs, (48 hr old) were treated as previously described and also left to hatch. This process was repeated at 24 hr intervals on head lice eggs up to 120 hr post laying. This method of assaying inhibitors more closely mirrors the field situation where lice eggs will be at various stages of development on the head and permits the inhibitory effects to be observed on these different stages of the parasite.
These two products were tested according to manufacturer's recommendations. Groups of eggs (24 hr old) were treated with the different products according to manufacturer's recommendations for the appropriate period of time (5-10 minutes) followed by a rinse for 1-2 minutes in 32° C. water. Two negative controls (no treatment and 20% ethanol) were also incorporated. […]

In the case of `c1cnc2c(c1)ccc1cccnc12` [1,10-phenanthroline], the “protease activity of the ESW” value in assay [1] is “significant reduction in protease activity”. The “% Inhibition” value in assay [2] is recorded as “able to inhibit egg hatching”; in assay [3], “significantly inhibit egg hatching”. The “egg hatching in lice” value with lice eggs (10 mM, eggs treated 5 days post laying) is given as “significantly inhibited egg hatching”. The “inhibition of egg hatching” value in the assay with lice eggs (added within 24 hours of hatching) is on record as “variable inhibition”. Besides, the “ovicidal activity across the different stages of lice egg hatching” value in the assay with head lice eggs was “highly effective at inhibiting lice egg hatching”.

For the origin of these results see patent US20090143419A1, “METHODS AND COMPOSITIONS FOR CONTROLLING ECTOPARASITES” (HATCHTECH PTY LTD, priority 2005, published 2009).
